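Growth conditions: 96-well plates. Treatment: test compound, 48 hours, 5 concentrations. Analysis: linear interpolation between bracketing concentrations; unreached endpoints set to highest concentration. GI50 = concentration required for 50% inhibition of growth. At the TGI there is no net growth.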
Legend:
Assay in all cases: NCI tumour cell line growth inhibition, 48 h
[1] = system: 786-0 renal
[2] = system: A498 renal
[3] = system: A549 NSCLC
[4] = system: ACHN renal
[5] = system: BT-549 breast
[6] = system: CAKI-1 renal
[7] = system: CCRF-CEM leukemia
[8] = system: COLO 205 colon
[9] = system: DU-145 prostate
[10] = system: EKVX NSCLC
[11] = system: HCC-2998 colon
[12] = system: HCT-116 colon
[13] = system: HCT-15 colon
[14] = system: HL-60(TB) leukemia
[15] = system: HOP-62 NSCLC
[16] = system: HOP-92 NSCLC
[17] = system: HS 578T breast
[18] = system: HT29 colon
[19] = system: K-562 leukemia
[20] = system: KM12 colon
[21] = system: LOX IMVI melanoma
[22] = system: M14 melanoma
[23] = system: MALME-3M melanoma
[24] = system: MCF7 breast
[25] = system: MDA-MB-231 breast
[26] = system: MDA-MB-435
[27] = system: MDA-MB-468 breast
[28] = system: MOLT-4 leukemia
[29] = system: NCI-H226 lung
[30] = system: NCI-H23 lung
[31] = system: NCI-H460 lung
[32] = system: NCI-H522 lung
[33] = system: NCI/ADR-RES ovarian
[34] = system: OVCAR-3 ovarian
[35] = system: OVCAR-4 ovarian
[36] = system: OVCAR-5 ovarian
[37] = system: OVCAR-8 ovarian
[38] = system: PC-3 prostate
[39] = system: RPMI-8226 leukemia
[40] = system: RXF 393 renal
[41] = system: SF-268 CNS
[42] = system: SF-295 CNS
[43] = system: SF-539 CNS
[44] = system: SK-MEL-2 melanoma
[45] = system: SK-MEL-28 melanoma
[46] = system: SK-MEL-5 melanoma
[47] = system: SK-OV-3 ovarian
[48] = system: SN12C renal
[49] = system: SNB-19 CNS
[50] = system: SNB-75 CNS
[51] = system: SR leukemia
[52] = system: SW-620 colon
[53] = system: T-47D breast
[54] = system: TK-10 renal
[55] = system: U251 CNS
[56] = system: UACC-257 melanoma
[57] = system: UACC-62 melanoma
[58] = system: UO-31 renal

For `COc1cncc(-c2ccc3ncnc(N4CCc5ccc(Cl)cc54)c3c2)c1`, the GI50 [1] was 1.61 µM, the TGI [1] was 15.8 µM and the GI50 [2] was 0.371 µM. It also gave a TGI [2] of 4.02 µM, a GI50 [3] of 1.85 µM and a TGI [3] of 18.4 µM. For the same compound, the GI50 [4] was 1.04 µM, the TGI [4] was 15.5 µM and the GI50 [5] was 1.78 µM. For the same compound, the TGI [5] was 8.41 µM, the GI50 [6] was 0.885 µM and the TGI [6] was 13.8 µM. It also gave a GI50 [7] of 3.13 µM, a TGI [7] of 54.1 µM and a GI50 [8] of 4.4 µM. It also gave a TGI [8] of 23 µM, a GI50 [9] of 1.98 µM and a TGI [9] of 27 µM. For the same compound, the GI50 [10] was 1.22 µM, the TGI [10] was 11.5 µM and the GI50 [11] was 3.48 µM. The TGI [11] was 19.8 µM, the GI50 [12] was 2.97 µM and the TGI [12] was 77.7 µM. The GI50 [13] was 3.04 µM, the TGI [13] was 19.9 µM and the TGI [14] was 6.2 µM. The GI50 [15] was 2.19 µM, the TGI [15] was 24.9 µM and the GI50 [16] was 2.24 µM. For the same compound, the TGI [16] was 17.8 µM, the GI50 [17] was 1.48 µM and the TGI [17] was 6.5 µM. It also gave a GI50 [18] of 3.11 µM, a TGI [18] of 20.5 µM and a GI50 [19] of 4.56 µM. The TGI [19] was greater than 100 µM, the GI50 [20] was 2.58 µM and the TGI [20] was 16.4 µM. It also gave a GI50 [21] of 3.28 µM, a TGI [21] of 20.5 µM and a GI50 [22] of 7.6 µM. For the same compound, the TGI [22] was 37.4 µM, the GI50 [23] was 9.11 µM and the TGI [23] was 24.2 µM. For the same compound, the GI50 [24] was 1.74 µM, the TGI [24] was 11.3 µM and the GI50 [25] was 3.43 µM. The TGI [25] was 33.1 µM, the GI50 [26] was 4.05 µM and the TGI [26] was 22.3 µM. The GI50 [27] was 0.231 µM, the TGI [27] was 2.26 µM and the GI50 [28] was 1.96 µM. It also gave a TGI [28] of 6.96 µM, a GI50 [29] of 2.04 µM and a TGI [29] of 18.3 µM. For the same compound, the GI50 [30] was 5.33 µM, the TGI [30] was 29.6 µM and the GI50 [31] was 3.65 µM. It also gave a TGI [31] of 20.3 µM, a GI50 [32] of 2.17 µM and a TGI [32] of 12.1 µM. The GI50 [33] was 2.16 µM, the TGI [33] was 27.9 µM and the GI50 [34] was 2.41 µM. The TGI [34] was 18.4 µM, the GI50 [35] was 2.69 µM and the TGI [35] was 22.9 µM. The GI50 [36] was 3.13 µM, the TGI [36] was 23.7 µM and the GI50 [37] was 3.98 µM. The TGI [37] was 55.9 µM, the GI50 [38] was 2.47 µM and the TGI [38] was greater than 100 µM. The GI50 [39] was 2.97 µM, the TGI [39] was greater than 100 µM and the GI50 [40] was 1.28 µM. For the same compound, the TGI [40] was 4.86 µM, the GI50 [41] was 3.02 µM and the TGI [41] was 26.9 µM. It also gave a GI50 [42] of 3.53 µM, a TGI [42] of 29.6 µM and a GI50 [43] of 3.41 µM. It also gave a TGI [43] of 14.4 µM, a GI50 [44] of 4.33 µM and a TGI [44] of 19.7 µM. For the same compound, the GI50 [45] was 7.02 µM, the TGI [45] was 21.9 µM and the GI50 [46] was 2.62 µM. It also gave a TGI [46] of 12.4 µM, a GI50 [47] of 2.81 µM and a TGI [47] of 16.4 µM. The GI50 [48] was 2.42 µM, the TGI [48] was 21.3 µM and the GI50 [49] was 3.56 µM. The TGI [49] was 27 µM, the GI50 [50] was 0.623 µM and the TGI [50] was 5.25 µM. It also gave a GI50 [51] of 3.03 µM, a TGI [51] of 25.4 µM and a GI50 [52] of 6.17 µM. It also gave a TGI [52] of 26.9 µM, a GI50 [53] of 1.23 µM and a TGI [53] of 10 µM. For the same compound, the GI50 [54] was 1.27 µM, the TGI [54] was 9.58 µM and the GI50 [55] was 4.24 µM. The TGI [55] was 24 µM, the GI50 [56] was 9.01 µM and the TGI [56] was 28.5 µM. For the same compound, the GI50 [57] was 2.49 µM, the TGI [57] was 16.3 µM and the GI50 [58] was 0.718 µM. For the same compound, the TGI [58] was 11.8 µM.

— PubChem BioAssay (NCI)
